According to patent US20240390353A1, “METHOD OF TREATMENT WITH TRADIPITANT” (Vanda Pharmaceuticals Inc., priority 2018, published 2024):
Entries after “also recorded” stand apart in the source; their conditions may differ.

System: otherwise healthy adults reporting regular illicit opioid misuse
Test: Double-blind within-subject crossover inpatient study: subject-rated outcomes of intranasal oxycodone during tradipitant vs placebo maintenance (sample sessions)
Assay type: in vivo, human
Protocol: A double-blind, inpatient, approximately 6 week study employing a within-subject crossover design examines the effects of maintenance with tradipitant as compared to placebo on response to oxycodone. Study subjects include otherwise healthy adults reporting regular illicit opioid misuse, and history of intranasal opioid use without physical dependence.
Subjects are administered placebo or tradipitant (85 mg p.o., bid) on study days 3-17 with a washout period on days 18-23, followed by administration of placebo or tradipitant (85 mg p.o., bid) on study days 24-39. In the study, tradipitant/placebo administration is counterbalanced across subjects. On study days 3, […], 24, and 39, subjects participate in challenge sessions (day 1 and steady state) in which they receive 0, 5, 10, or 20 mg intranasal (IN) oxycodone at 1 hr. intervals, after which effect of tradipitant on analgesia in humans is evaluated. On study days 2, 8, 11, 15, 29, 32, and 36, subjects participate in sample sessions in which subjects are administered 0, 15, or 30 mg IN oxycodone, after which effect of tradipitant on subject-rated outcomes is evaluated. Such subject-rated outcomes include responses to questions including “how much do you like the drug,” “does the drug have any good effects,” “do you feel any drug effect,” and “how much do you desire opiates right now?” Further, on study days 9, 12, 16, 30, 33, and 37, subjects participate in choice sessions, in which effect of tradipitant on oxycodone self-administration is evaluated.

[1] = 0, 15 or 30 mg IN oxycodone, difference from 0 mg
[2] = tradipitant 85 mg p.o. bid maintenance, at some opioid drug doses, e.g. 15 mg IN oxycodone, FIGS. 1-3

| SMILES | effect of oxycodone dose on trough scores for desire for opioids (0, 15 or 30 mg IN oxycodone) | peak ratings of good effects [1] | peak ratings of liking for the drug [1] | peak ratings of overall drug effect [1] | desire for opioids (cravings), trough scores ("how much do you desire opiates right now?") (tradipitant 85 mg p.o. bid maintenance compared to placebo maintenance, 0, 15 or 30 mg IN oxycodone, FIG. 4) | perception of how good the effects of the drug were [2] | perception of how much of a drug effect was felt [2] | perception of how much the opioid drug was liked [2] | pleasurable and drug seeking sensations (tradipitant maintenance, at some doses) |
| --- | --- | --- | --- | --- | --- | --- | --- | --- | --- |
| COc1ccc2c3c1O[C@H]1C(=O)CC[C@@]4(O)[C@@H](C2)N(C)CC[C@]314 [Oxycodone, oxycodone, reference compound] | no significant effect | significant and dose-dependent increases | significant and dose-dependent increases | significant and dose-dependent increases |  |  |  |  |  |
| O=C(c1ccccc1Cl)c1cccnc1-c1nnn(Cc2cc(C(F)(F)F)cc(C(F)(F)F)c2)c1-c1ccncc1 [tradipitant] |  |  |  |  | diminished; also recorded: reduces | decreases | decreases | decreases | decreases |
